PMC5599477, “Comparative stability of Major Facilitator Superfamily transport proteins” (European Biophysics Journal, 2017)

Columns and labels:
XylE = biological target: T1, XylE (Escherichia coli, UniProt P0AGF4); assay: far-UV circular dichroism at […] nm, GuHCl denaturation with ligand; format: binding; details: 1 mM ligand; 0.35 mg/ml protein; detergent-solubilised; chemical denaturation onset, not an affinity; D/L form not given
T1 construct: 10-His tag (modified pET28a), expressed in E. coli BL21-AI, purified, detergent-solubilised (LacY-WT procedure)
T1 sequence (P0AGF4 1-491): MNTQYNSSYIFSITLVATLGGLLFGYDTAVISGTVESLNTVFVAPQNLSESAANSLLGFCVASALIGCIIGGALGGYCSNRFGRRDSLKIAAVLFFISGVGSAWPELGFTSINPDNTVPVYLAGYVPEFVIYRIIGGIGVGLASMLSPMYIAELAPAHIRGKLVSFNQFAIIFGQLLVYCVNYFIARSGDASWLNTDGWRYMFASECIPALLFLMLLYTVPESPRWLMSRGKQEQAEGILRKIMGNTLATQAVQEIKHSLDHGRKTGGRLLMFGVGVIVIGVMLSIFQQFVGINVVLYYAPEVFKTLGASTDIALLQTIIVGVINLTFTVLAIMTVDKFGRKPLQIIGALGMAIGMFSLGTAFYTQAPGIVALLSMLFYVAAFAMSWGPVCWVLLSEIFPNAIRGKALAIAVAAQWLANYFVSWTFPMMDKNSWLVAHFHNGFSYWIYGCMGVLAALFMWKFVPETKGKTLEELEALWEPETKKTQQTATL

GlpT = biological target: T2, GlpT (Escherichia coli, UniProt P08194); assay: far-UV circular dichroism at […] nm, urea denaturation with ligand; format: binding; details: 50 uM ligand; 0.01 mg/ml protein; detergent-solubilised; 50 mM Tris-HCl pH 7.4; chemical denaturation onset, not an affinity
T2 construct: 10-His tag (modified pET28a), expressed in E. coli BL21-AI, purified, detergent-solubilised (LacY-WT procedure, Tris-HCl pH 7.4)
T2 sequence (P08194 1-452): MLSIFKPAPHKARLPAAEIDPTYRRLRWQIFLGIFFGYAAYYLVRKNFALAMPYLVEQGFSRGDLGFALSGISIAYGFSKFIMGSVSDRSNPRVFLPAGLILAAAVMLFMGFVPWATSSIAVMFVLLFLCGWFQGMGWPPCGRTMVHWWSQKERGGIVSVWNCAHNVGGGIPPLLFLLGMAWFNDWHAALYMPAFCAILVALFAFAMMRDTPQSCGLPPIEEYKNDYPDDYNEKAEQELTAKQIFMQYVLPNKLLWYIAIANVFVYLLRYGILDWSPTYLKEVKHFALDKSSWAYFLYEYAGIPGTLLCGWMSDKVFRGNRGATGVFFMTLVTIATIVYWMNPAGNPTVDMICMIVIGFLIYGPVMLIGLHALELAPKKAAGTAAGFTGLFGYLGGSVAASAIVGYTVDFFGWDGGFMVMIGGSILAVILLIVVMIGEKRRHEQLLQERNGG

Row | Concentration of GuHCl required for unfolding (M) (XylE) | SMILES | Effect of ligand on stability (GlpT)
1 | > 5 M GuHCl | OC1OC[C@@H](O)[C@H](O)[C@H]1O (some centres unmarked) [xylose] | –
2 | – | Cc1ncc(COP(=O)(O)O)c(C=O)c1O [pyridoxal-5-phosphate] | > 6 M urea
